Eleven molecules from ChEMBL document CHEMBL5465560, “Selectivity Literature for EUbOPEN Chemogenomic Library” (2024) can be followed below.

The target in test [1] is T1, Mitogen-activated protein kinase kinase kinase 7 (Homo sapiens) (UniProt O43318).
T1 sequence (whole entry): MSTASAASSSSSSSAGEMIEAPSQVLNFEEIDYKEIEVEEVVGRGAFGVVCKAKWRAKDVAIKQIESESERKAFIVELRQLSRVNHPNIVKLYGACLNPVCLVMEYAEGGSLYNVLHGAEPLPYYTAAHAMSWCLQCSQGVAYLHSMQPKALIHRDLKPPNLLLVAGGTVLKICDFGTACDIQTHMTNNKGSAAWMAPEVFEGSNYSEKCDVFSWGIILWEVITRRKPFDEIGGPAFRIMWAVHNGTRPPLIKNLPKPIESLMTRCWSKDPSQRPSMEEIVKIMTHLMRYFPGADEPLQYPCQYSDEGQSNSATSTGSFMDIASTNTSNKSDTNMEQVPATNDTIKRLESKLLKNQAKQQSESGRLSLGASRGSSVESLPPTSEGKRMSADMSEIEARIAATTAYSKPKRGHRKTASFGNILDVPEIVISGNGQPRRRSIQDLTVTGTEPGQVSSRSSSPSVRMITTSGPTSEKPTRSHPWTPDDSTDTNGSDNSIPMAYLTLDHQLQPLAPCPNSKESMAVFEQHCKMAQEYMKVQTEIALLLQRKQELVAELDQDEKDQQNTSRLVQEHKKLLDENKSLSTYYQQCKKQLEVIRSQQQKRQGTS
The test is described as follows: Selectivity interaction (ProQinase) EUB0000171b MAP3K7.

Test [2] has as its target T2, Protein kinase C iota type (Homo sapiens) (UniProt P41743).
T2 sequence (whole entry): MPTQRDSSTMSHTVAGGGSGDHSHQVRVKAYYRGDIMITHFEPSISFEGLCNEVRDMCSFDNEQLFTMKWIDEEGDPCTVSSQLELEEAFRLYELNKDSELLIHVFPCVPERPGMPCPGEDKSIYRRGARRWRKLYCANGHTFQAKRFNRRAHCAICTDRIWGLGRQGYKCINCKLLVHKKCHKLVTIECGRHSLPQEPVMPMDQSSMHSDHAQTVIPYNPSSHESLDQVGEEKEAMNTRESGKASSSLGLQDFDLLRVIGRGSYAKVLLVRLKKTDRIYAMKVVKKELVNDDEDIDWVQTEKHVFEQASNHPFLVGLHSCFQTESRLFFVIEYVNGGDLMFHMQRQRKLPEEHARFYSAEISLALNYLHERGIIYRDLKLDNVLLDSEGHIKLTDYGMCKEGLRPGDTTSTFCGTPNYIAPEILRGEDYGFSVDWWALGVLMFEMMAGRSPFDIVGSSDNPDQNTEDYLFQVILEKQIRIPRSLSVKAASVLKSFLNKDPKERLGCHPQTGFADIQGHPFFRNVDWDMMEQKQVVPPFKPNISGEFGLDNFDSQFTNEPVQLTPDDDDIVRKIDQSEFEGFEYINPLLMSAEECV
The test is described as follows: Selectivity interaction (ProQinase) EUB0000171b PRKCI.

In test [3] the target is Ephrin type-A receptor 2 (Homo sapiens) (UniProt P29317). Conditions: at 10 µM.
Test [4] deals with Dual specificity tyrosine-phosphorylation-regulated kinase 1B (Homo sapiens, UniProt Q9Y463). As to the kind of experiment: Selectivity interaction (KinomeScan (DiscoverX)) EUB0000655a DYRK1B. Conditions: at 10 µM.
Test [5] has as its target Serine/threonine-protein kinase pim-1 (Homo sapiens, UniProt P11309). As to the kind of experiment: Selectivity interaction (KinomeScan (DiscoverX)) EUB0000695a PIM1. The conditions noted are these: at 100 nM.
For test [6], the target named is Histone acetyltransferase KAT2A (Homo sapiens) (UniProt Q92830). As to the kind of experiment: Selectivity interaction (Bromodomain panel (DSF asssay)) EUB0000270b KAT2A.
Test [7] has as its target SRSF protein kinase 3 (Homo sapiens) (UniProt Q9UPE1). As to the kind of experiment: Selectivity interaction (Kinase panel (Z-LYTE Assay)) EUB0001632a SRPK3. The conditions noted are these: at 10 µM.
Test [8] deals with Dual specificity mitogen-activated protein kinase kinase 2 (Homo sapiens) (UniProt P36507). As to the kind of experiment: Selectivity interaction (KinomeScan (DiscoverX)) EUB0000229b MAP2K2. The conditions noted are these: at 10 µM.
The nature of test [9]: Selectivity interaction (Androgen receptor agonist/antagonist FRET assay, rat recombinant ) EUB0000877a AR.
The target in test [10] is T3, Tyrosine-protein kinase Tec (Homo sapiens) (UniProt P42680).
T3 sequence (whole entry): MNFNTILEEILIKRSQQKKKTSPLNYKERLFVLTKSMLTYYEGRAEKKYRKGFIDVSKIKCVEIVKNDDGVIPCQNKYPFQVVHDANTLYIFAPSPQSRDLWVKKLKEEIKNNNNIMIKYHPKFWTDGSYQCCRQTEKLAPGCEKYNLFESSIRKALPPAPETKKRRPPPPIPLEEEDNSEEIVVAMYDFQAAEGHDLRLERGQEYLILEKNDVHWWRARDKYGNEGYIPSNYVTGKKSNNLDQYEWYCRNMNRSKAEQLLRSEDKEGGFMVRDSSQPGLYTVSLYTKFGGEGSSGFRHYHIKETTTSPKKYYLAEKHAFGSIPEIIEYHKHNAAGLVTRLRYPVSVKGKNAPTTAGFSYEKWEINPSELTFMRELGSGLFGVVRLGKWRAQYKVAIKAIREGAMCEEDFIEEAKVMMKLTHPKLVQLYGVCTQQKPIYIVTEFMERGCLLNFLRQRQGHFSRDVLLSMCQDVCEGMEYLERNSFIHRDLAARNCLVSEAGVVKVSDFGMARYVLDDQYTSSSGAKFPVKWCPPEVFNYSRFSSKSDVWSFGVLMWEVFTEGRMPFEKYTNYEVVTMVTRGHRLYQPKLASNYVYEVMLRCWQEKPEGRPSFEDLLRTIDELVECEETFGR
The conditions noted are these: at 10 µM.

In test [11] the target is Ribosomal protein S6 kinase alpha-3 (Homo sapiens, UniProt P51812). The test is described as follows: Selectivity interaction (Kinase panel (KiNativ target engagement assay in Jurkat cells)) EUB0001635a RPS6KA3. Conditions: Selectivity number of off-targets 0.0, Selectivity number of targets 233.0, Source Knowledge https://www.sciencedirect.com/science/article/pii/S2451945619300674?via%3Dihub, at 1 µM. Type of test: cell-based.

For test [12], the target named is Serine/threonine-protein kinase MARK2 (Homo sapiens) (UniProt Q7KZI7). The test is described as follows: Selectivity interaction (KinomeScan (DiscoverX)) EUB0000618a MARK2. The conditions noted are these: at 10 µM.
Chain of Serine/threonine-protein kinase MARK2 (Homo sapiens) (Q7KZI7 whole entry): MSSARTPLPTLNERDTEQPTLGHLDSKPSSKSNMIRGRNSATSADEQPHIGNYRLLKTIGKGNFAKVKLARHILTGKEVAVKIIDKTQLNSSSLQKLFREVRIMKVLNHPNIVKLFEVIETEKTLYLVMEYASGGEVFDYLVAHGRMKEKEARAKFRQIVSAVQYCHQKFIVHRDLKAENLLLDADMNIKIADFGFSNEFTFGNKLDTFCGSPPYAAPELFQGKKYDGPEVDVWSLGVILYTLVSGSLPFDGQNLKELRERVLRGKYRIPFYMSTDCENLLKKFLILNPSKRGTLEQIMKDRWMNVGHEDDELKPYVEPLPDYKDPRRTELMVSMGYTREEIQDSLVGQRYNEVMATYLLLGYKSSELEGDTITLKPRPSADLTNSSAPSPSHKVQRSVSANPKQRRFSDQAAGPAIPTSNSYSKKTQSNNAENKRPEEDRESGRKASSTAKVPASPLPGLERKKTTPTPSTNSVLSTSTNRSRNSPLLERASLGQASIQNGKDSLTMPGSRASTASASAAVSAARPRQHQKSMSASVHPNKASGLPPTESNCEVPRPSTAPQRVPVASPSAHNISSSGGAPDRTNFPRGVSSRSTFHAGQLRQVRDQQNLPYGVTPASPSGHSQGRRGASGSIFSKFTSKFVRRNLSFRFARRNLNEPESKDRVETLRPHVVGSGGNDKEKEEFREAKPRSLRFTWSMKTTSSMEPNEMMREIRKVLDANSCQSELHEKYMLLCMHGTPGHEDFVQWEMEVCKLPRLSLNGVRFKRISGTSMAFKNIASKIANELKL

Chain of Dual specificity mitogen-activated protein kinase kinase 2 (Homo sapiens) (P36507 whole entry): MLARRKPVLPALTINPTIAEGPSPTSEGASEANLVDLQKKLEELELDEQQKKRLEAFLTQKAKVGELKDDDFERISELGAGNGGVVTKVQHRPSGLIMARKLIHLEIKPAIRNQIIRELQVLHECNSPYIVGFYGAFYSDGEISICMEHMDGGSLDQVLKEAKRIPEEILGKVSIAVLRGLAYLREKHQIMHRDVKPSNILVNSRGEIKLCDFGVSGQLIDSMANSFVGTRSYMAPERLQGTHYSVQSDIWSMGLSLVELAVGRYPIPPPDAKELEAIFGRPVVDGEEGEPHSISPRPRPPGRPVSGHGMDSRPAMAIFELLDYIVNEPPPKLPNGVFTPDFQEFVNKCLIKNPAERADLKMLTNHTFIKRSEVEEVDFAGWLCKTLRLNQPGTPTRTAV
Chain of Dual specificity tyrosine-phosphorylation-regulated kinase 1B (Q9Y463 whole entry, looked up): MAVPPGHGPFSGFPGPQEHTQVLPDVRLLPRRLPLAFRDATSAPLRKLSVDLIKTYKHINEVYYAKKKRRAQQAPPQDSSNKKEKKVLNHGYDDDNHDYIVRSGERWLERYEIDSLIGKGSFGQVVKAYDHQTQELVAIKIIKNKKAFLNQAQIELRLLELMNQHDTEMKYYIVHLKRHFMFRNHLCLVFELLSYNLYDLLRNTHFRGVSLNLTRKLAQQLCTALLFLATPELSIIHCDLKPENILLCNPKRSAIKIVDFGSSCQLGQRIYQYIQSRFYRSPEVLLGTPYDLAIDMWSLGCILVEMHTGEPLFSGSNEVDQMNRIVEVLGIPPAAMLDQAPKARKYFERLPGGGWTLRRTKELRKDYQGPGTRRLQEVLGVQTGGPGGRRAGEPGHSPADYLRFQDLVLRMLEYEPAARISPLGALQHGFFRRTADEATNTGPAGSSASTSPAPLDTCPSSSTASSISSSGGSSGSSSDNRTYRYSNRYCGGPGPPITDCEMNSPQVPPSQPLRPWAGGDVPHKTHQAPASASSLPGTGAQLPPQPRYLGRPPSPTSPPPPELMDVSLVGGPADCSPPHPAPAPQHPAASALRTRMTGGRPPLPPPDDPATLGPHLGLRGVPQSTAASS
Chain of Serine/threonine-protein kinase pim-1 (P11309 whole entry, looked up): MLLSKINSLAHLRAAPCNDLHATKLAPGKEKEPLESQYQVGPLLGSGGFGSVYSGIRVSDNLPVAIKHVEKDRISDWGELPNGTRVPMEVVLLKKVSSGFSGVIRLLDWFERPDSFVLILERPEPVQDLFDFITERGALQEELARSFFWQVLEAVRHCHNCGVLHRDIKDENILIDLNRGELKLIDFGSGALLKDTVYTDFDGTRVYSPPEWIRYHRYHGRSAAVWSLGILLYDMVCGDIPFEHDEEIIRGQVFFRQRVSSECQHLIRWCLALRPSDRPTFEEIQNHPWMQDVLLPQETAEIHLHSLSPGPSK
Chain of Ribosomal protein S6 kinase alpha-3 (P51812 whole entry): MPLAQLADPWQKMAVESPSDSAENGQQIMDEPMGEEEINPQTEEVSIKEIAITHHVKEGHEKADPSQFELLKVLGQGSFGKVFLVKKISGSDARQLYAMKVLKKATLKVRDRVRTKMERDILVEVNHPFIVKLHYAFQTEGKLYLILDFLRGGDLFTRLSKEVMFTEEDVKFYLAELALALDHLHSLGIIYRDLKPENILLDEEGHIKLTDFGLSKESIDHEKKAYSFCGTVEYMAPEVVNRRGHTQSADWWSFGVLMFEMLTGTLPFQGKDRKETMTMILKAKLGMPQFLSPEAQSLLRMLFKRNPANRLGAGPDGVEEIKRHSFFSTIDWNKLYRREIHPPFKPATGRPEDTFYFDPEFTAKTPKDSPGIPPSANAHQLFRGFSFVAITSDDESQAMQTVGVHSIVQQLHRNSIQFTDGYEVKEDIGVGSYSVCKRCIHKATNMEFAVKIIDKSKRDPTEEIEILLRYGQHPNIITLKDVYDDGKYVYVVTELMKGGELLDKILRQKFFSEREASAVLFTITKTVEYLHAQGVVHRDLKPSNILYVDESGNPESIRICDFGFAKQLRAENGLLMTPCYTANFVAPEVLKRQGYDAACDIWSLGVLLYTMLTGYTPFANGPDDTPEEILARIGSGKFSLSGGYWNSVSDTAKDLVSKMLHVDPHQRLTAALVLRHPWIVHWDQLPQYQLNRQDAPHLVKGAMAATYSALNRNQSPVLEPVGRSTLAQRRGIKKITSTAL
Chain of Histone acetyltransferase KAT2A (Homo sapiens) (Q92830 2-837 limits assumed): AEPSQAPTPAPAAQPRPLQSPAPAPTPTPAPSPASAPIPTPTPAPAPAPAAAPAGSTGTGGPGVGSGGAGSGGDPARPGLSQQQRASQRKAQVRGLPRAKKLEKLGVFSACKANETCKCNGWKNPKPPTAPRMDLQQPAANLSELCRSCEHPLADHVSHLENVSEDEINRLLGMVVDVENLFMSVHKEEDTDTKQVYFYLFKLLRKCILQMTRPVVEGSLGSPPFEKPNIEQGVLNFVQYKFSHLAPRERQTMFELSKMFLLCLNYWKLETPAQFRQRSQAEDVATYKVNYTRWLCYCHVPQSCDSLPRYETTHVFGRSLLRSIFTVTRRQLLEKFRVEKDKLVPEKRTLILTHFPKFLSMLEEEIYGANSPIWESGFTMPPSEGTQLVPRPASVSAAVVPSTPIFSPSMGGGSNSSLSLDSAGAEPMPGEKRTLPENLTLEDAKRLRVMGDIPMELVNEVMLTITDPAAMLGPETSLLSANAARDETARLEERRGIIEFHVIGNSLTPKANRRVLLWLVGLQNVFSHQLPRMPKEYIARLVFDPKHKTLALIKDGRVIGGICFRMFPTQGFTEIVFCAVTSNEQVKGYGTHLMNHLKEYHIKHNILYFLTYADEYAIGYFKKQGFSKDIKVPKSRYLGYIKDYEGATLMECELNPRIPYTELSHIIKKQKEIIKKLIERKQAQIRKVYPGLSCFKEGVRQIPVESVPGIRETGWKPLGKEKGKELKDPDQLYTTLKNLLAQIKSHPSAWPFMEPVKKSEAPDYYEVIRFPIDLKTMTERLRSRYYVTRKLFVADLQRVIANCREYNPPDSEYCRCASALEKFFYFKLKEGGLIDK
Chain of SRSF protein kinase 3 (Homo sapiens) (Q9UPE1 whole entry): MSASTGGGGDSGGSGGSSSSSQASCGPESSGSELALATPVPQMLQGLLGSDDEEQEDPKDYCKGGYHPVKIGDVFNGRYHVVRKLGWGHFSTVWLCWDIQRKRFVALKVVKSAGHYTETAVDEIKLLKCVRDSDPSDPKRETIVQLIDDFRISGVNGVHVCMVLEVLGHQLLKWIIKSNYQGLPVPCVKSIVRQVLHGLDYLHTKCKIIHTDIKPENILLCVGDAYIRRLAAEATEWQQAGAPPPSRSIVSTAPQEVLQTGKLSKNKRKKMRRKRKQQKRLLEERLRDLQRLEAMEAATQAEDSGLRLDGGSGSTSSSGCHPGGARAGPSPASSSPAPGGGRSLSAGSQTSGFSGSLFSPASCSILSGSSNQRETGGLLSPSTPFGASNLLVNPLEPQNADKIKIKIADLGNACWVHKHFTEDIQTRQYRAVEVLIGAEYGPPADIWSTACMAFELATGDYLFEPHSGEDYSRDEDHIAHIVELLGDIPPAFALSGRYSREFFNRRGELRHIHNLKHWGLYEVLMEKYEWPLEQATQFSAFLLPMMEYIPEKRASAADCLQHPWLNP

Turning to `C=CC(=O)Nc1cccc(C(=O)Nc2ccc(Nc3cc(-c4[nH]c(SC)nc4C)ccn3)cc2)c1`, the % of control in test [1] (at 1 µM) is 101%; in [1] (at 5 µM), 77%; in test [2] (at 1 µM), 80%; in test [2] (at 5 µM), 52%.
For the molecule `CCN(CC)CCCCNc1ncc2cc(-c3cc(OC)cc(OC)c3)c(NC(=O)NC(C)(C)C)nc2n1`, the % of control in [3] came to 100%.
As for `CN(C)CCOc1ccc(-c2nc(-c3ccncc3)c(-c3ccc4c(c3)CC/C4=N\O)[nH]2)cc1`, the % of control in [4] turned out to be 100%.
On to `Cc1cc(F)c(C(=O)Nc2cccc(-c3nncn3C(C)C)n2)cc1-n1cnc(C2CC2)c1`, for which, in test [5], the % of control stood at 100%.
With `Cc1cc(CN)cc(C)c1-c1ncn(C)c1-c1cncn1C`, in test [6], the dTM is -2.29 K.
As for `Cn1cc(-n2cnc3c(NCc4nc5cc(Cl)c(Cl)cc5[nH]4)nc(N4CCOCC4)nc32)cn1`, the % of control in [7] was -1.05%.
On to `COc1cc(N(C)c2ccnc3ccc(C(F)(F)F)cc23)cc(OC)c1OC`, for which the % binding in test [8] worked out at 68%.
For orientation: IC50 means the concentration that gives 50% inhibition. For `CCC(=O)N1CC[C@H](Nc2ncnc3c2CN(c2cnc(OC)c(C(F)(F)F)c2)CC3)C1` [LENIOLISIB], the IC50 in [9] was above 30 µM.
Consider `COCC(=O)NC/C=C/c1ccc2ncnc(Nc3ccc(Oc4ccc(C)nc4)c(C)c3)c2c1` [CP-724714], for which the % of control in test [10] was determined as 73%.
Take `C=CC(=O)Nc1ccc(C(=O)Nc2[nH]nc3c2CN(C(=O)N[C@H](CN(C)C)c2ccccc2)C3(C)C)cc1`: the % of engagement in [11] was -18.2%.
As for `O[C@H]1CC[C@H](Nc2ncc3nc(Nc4c(F)cc(F)cc4F)n([C@H]4CCOC4)c3n2)CC1`, the % of control in test [12] stood at 100%.
